Source: patent US7851474B2, “Dipiperazinyl ketones and related analogues” (Neurogen Corporation, priority 2005, dated 2010)

Target: T1, chimeric human H3 receptor (Homo sapiens, UniProt Q9Y5N1, E19D)
T1 construct: made in house; host or cells: Sf9 insect cells (baculovirus infection); P2 membrane preparation
Assay: Chimeric human H3 receptor screening GTP binding assay (inhibition of histamine-stimulated GTP-gamma35S binding, Example 8)
Format: biochemical
Conditions: 1 h; "+" in Ki of Table II; assay of Example 8; read-out: percent inhibition of agonist-induced GTP-gammaS binding to H3
Description: This Example illustrates a representative screening assay for evaluating inhibition of histamine-stimulated GTP-gamma^35S binding. Such GTP binding activity can be used to identify H3 antagonists and inverse agonists. A compound analyzed in this assay is referred to herein as a “test compound,” and the initial identification of antagonists and inverse agonists is performed using a test compound concentration of 4 μM.
Four independent baculoviral stocks (one directing the expression of the chimeric human H3 receptor and three directing the expression of each of the three subunits of a heterotrimeric G-protein) are used to infect a culture of Sf9 cells as described above. P2 membranes are prepared as described above, and are resuspended by Dounce homogenization (tight pestle) in GTP binding assay buffer (50 mM Tris pH 7.4, 120 mM NaCl, 5 mM MgCl2, 2 mM EGTA, 1 mg/ml BSA, 0.2 mg/ml bacitracin, 0.02 mg/ml aprotinin, 0.01 mg/ml saponin, 10 μM GDP) and added to assay tubes at a concentration of 35 μg protein/reaction tube. Non-radiolabeled test compounds are added to separate reactions at a concentration of 4 μM along with 1 μM histamine (agonist). Reactions are initiated by the addition of 125 pM GTP-gamma^35S with a final assay volume of 0.20 ml.
After a 60-min incubation at room temperature, reactions are terminated by vacuum filtration over GF/C filters (pre-soaked in 50 mM Tris pH 7.4, 120 mM NaCl plus 0.1% BSA) followed by washing with ice-cold buffer (50 mM Tris pH 7.4, 120 mM NaCl). The amount of receptor-bound (and thereby membrane-bound) GTP-gamma^35S is determined by measuring the bound radioactivity, preferably by liquid scintillation spectrometry of the washed filters. Non-specific binding is determined using 10 uM GTP-gammaS and typically represents less than 5 percent of total binding. After subtraction of non-specific binding, data is expressed as percent inhibition of 1 μM histamine signal.
Neutral antagonists are those test compounds that reduce the histamine-stimulated GTP binding activity towards, but not below, baseline levels. In contrast, in the absence of added histamine, inverse agonists reduce the GTP binding activity of the receptor-containing membranes below baseline. Any test compound that elevates GTP binding activity above baseline in the absence of added histamine in this assay is defined as having agonist activity.

T1 sequence (Q9Y5N1 with tags, fused parts or gaps E19D): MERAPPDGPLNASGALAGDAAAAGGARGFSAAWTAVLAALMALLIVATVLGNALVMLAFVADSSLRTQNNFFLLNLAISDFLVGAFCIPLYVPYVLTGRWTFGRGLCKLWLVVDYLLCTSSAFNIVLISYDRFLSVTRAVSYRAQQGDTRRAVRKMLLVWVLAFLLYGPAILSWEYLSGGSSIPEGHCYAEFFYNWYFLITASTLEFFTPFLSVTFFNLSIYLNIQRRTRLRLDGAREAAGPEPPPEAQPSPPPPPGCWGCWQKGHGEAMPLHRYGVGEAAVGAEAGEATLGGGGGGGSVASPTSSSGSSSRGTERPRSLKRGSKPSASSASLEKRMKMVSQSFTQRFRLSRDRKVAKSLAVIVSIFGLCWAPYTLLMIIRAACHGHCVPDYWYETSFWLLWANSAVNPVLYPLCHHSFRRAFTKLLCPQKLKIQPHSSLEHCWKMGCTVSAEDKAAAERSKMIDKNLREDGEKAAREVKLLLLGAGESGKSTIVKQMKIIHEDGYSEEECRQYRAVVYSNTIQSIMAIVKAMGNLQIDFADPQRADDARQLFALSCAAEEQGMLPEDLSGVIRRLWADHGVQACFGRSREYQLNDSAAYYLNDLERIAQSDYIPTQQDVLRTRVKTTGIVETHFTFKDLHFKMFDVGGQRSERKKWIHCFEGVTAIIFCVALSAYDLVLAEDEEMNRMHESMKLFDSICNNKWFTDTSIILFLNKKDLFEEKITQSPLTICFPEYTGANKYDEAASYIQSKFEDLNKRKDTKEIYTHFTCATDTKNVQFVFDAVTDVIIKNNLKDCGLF

SMILES | inhibition at 4 µM [%]
CCOc1ccsc1C(=O)N1CCN(CC(=O)N2CCN(C3CCC3)CC2)CC1 [Compound 549, 1-cyclobutyl-4-({4-[(3-ethoxy-2-thienyl)carbonyl]piperazin-1-yl}acetyl)piperazine] | > 90
Cc1cc(C(=O)N2CCN(CC(=O)N3CCN(C4CCC4)CC3)CC2)nn1C [Compound 498, 1-cyclobutyl-4-({4-[(1,5-dimethyl-1H-pyrazol-3-yl)carbonyl]piperazin-1-yl}acetyl)piperazine] | > 90
COc1ccc(OCC(=O)N2CCN(CC(=O)N3CCN(C4CCC4)CC3)CC2)cc1 [Compound 562, 1-cyclobutyl-4-({4-[(4-methoxyphenoxy)acetyl]piperazin-1-yl}acetyl)piperazine] | > 90
O=C(/C=C/c1ccc(Cl)cc1Cl)N1CCN(CC(=O)N2CCN(C3CCC3)CC2)CC1 [Compound 519, 1-cyclobutyl-4-({4-[(2E)-3-(2,4-dichlorophenyl)prop-2-enoyl]piperazin-1-yl}acetyl)piperazine] | > 90
O=C(/C=C/c1ccc(Cl)c(Cl)c1)N1CCN(CC(=O)N2CCN(C3CCC3)CC2)CC1 [Compound 527, 1-cyclobutyl-4-({4-[(2E)-3-(3,4-dichlorophenyl)prop-2-enoyl]piperazin-1-yl}acetyl)piperazine] | > 90
O=C(Cc1ccccc1OCc1ccccc1)N1CCN(CC(=O)N2CCN(C3CCC3)CC2)CC1 [Compound 476, 1-{[2-(benzyloxy)phenyl]acetyl}-4-[2-(4-cyclobutylpiperazin-1-yl)-2-oxoethyl]piperazine] | > 90
COc1cccc(CC(=O)N2CCN(CC(=O)N3CCN(C4CCC4)CC3)CC2)c1 [Compound 552, 1-cyclobutyl-4-({4-[(3-methoxyphenyl)acetyl]piperazin-1-yl}acetyl)piperazine] | > 90

The next lines start with the values.

inhibition at 4 µM [%] | SMILES
> 90 | Cc1ccccc1/C=C/C(=O)N1CCN(CC(=O)N2CCN(C3CCC3)CC2)CC1 [Compound 526, 1-cyclobutyl-4-({4-[(2E)-3-(2-methylphenyl)prop-2-enoyl]piperazin-1-yl}acetyl)piperazine]
> 90 | CCCCn1c(C(=O)N2CCN(CC(=O)N3CCN(C4CCC4)CC3)CC2)cc2ccccc21 [Compound 495, 1-butyl-2-({4-[2-(4-cyclobutylpiperazin-1-yl)-2-oxoethyl]piperazin-1-yl}carbonyl)-1H-indole]
> 90 | CCOc1ccccc1/C=C/C(=O)N1CCN(CC(=O)N2CCN(C3CCC3)CC2)CC1 [Compound 523, 1-cyclobutyl-4-({4-[(2E)-3-(2-ethoxyphenyl)prop-2-enoyl]piperazin-1-yl}acetyl)piperazine]

Same assay, conditions: 1 h; Table II "Ki", symbol "+": assay described in Example 8; read-out: percent inhibition of agonist-induced GTP-gammaS binding to H3

inhibition at 4 µM [%] | SMILES
> 90 | CCC(C)N1CCN(C(=O)CN2CCN(C(=O)C3CCCO3)CC2)CC1 (centres unmarked) [Compound 886, 1-sec-butyl-4-{[4-(tetrahydrofuran-2-ylcarbonyl)piperazin-1-yl]acetyl}piperazine]
> 90 | O=C(CN1CCN(C(=O)C(c2ccccc2)c2ccccc2)CC1)N1CCN(C2CCC2)CC1 [Compound 794, 1-cyclobutyl-4-{[4-(diphenylacetyl)piperazin-1-yl]acetyl}piperazine]
> 90 | Cc1cc(C)c(C(=O)N2CCN(CC(=O)N3CCN(C4CCC4)CC3)CC2)c(C)c1 [Compound 796, 1-cyclobutyl-4-{[4-(mesitylcarbonyl)piperazin-1-yl]acetyl}piperazine]

Same assay, conditions: 1 h; Table II, "+" in the column headed Ki; assay of Example 8; read-out: percent inhibition of agonist-induced GTP-gammaS binding to H3

SMILES | inhibition at 4 µM [%]
Cc1cc(C(=O)N2CCN(CC(=O)N3CCN(C4CCC4)CC3)CC2)c(C)o1 [Compound 688, 1-cyclobutyl-4-{[4-(2,5-dimethyl-3-furoyl)piperazin-1-yl]acetyl}piperazine] | > 90
O=C(CN1CCN(C(=O)c2ccc3c(c2)CCO3)CC1)N1CCN(C2CCC2)CC1 [Compound 669, 1-cyclobutyl-4-{[4-(2,3-dihydro-1-benzofuran-5-ylcarbonyl)piperazin-1-yl]acetyl}piperazine] | > 90
COc1ccc(OC)c(C(=O)N2CCN(CC(=O)N3CCN(C4CCC4)CC3)CC2)c1 [Compound 686, 1-cyclobutyl-4-{[4-(2,5-dimethoxybenzoyl)piperazin-1-yl]acetyl}piperazine] | > 90
COc1cc(OC)cc(C(=O)N2CCN(CC(=O)N3CCN(C4CCC4)CC3)CC2)c1 [Compound 741, 1-cyclobutyl-4-{[4-(3,5-dimethoxybenzoyl)piperazin-1-yl]acetyl}piperazine] | > 90
CSc1sc(C(=O)N2CCN(CC(=O)N3CCN(C4CCC4)CC3)CC2)c2c1C=CCC2 [Compound 625, 1-cyclobutyl-4-[(4-{[3-(methylthio)-6,7-dihydro-2-benzothien-1-yl]carbonyl}piperazin-1-yl)acetyl]piperazine] | > 90
O=C(Cc1ccc(OC(F)(F)F)cc1)N1CCN(CC(=O)N2CCN(C3CCC3)CC2)CC1 [Compound 630, 1-cyclobutyl-4-[(4-{[4-(trifluoromethoxy)phenyl]acetyl}piperazin-1-yl)acetyl]piperazine] | > 90

Second part, the molecule after the results:

inhibition at 4 µM [%] | SMILES
> 90 | CSc1ncccc1C(=O)N1CCN(CC(=O)N2CCN(C3CCC3)CC2)CC1 [Compound 619]
> 90 | Cc1ccccc1C(C(=O)N1CCN(CC(=O)N2CCN(C3CCC3)CC2)CC1)C(C)C (centres unmarked) [Compound 591, 1-cyclobutyl-4-({4-[3-methyl-2-(2-methylphenyl)butanoyl]piperazin-1-yl}acetyl)piperazine]
> 90 | Cc1oc(-c2ccccc2)cc1C(=O)N1CCN(CC(=O)N2CCN(C3CCC3)CC2)CC1 [Compound 713, 1-cyclobutyl-4-{[4-(2-methyl-5-phenyl-3-furoyl)piperazin-1-yl]acetyl}piperazine]
> 90 | Cc1ccc(C)c(C(=O)N2CCN(CC(=O)N3CCN(C4CCC4)CC3)CC2)c1 [Compound 689, 1-cyclobutyl-4-{[4-(2,5-dimethylbenzoyl)piperazin-1-yl]acetyl}piperazine]
> 90 | O=C(CN1CCN(C(=O)c2cccc(C(F)(F)F)c2)CC1)N1CCN(C2CCC2)CC1 [Compound 588, 1-cyclobutyl-4-({4-[3-(trifluoromethyl)benzoyl]piperazin-1-yl}acetyl)piperazine]

Same assay, conditions: 1 h; assay described in Example 8; symbol + in column headed Ki of Table II; read-out: percent inhibition of agonist-induced GTP-gammaS binding to H3

SMILES | inhibition at 4 µM [%]
O=C(Cc1cccc(Cl)c1)N1CCN(CC(=O)N2CCN(C3CCC3)CC2)CC1 [Compound 400, 1-[(3-chlorophenyl)acetyl]-4-[2-(4-cyclobutylpiperazin-1-yl)-2-oxoethyl]piperazine] | > 90
COc1ccc(Br)c(OC)c1C(=O)N1CCN(CC(=O)N2CCN(C3CCC3)CC2)CC1 [Compound 290, 1-(3-bromo-2,6-dimethoxybenzoyl)-4-[2-(4-cyclobutylpiperazin-1-yl)-2-oxoethyl]piperazine] | > 90
O=C(/C=C/c1c(F)cccc1Cl)N1CCN(CC(=O)N2CCN(C3CCC3)CC2)CC1 [Compound 388, 1-[(2E)-3-(2-chloro-6-fluorophenyl)prop-2-enoyl]-4-[2-(4-cyclobutylpiperazin-1-yl)-2-oxoethyl]piperazine] | > 90
COc1cc(Cl)ccc1OCC(=O)N1CCN(CC(=O)N2CCN(C3CCC3)CC2)CC1 [Compound 404, 1-[(4-chloro-2-methoxyphenoxy)acetyl]-4-[2-(4-cyclobutylpiperazin-1-yl)-2-oxoethyl]piperazine] | > 90

Now from value to molecule:

inhibition at 4 µM [%] | SMILES
> 90 | O=C(CN1CCN(C(=O)c2ccccc2Cl)CC1)N1CCN(C2CCC2)CC1 [Compound 277, 1-(2-chlorobenzoyl)-4-[2-(4-cyclobutylpiperazin-1-yl)-2-oxoethyl]piperazine]
> 90 | COc1ccc(Br)c(C(=O)N2CCN(CC(=O)N3CCN(C4CCC4)CC3)CC2)c1 [Compound 271, 1-(2-bromo-5-methoxybenzoyl)-4-[2-(4-cyclobutylpiperazin-1-yl)-2-oxoethyl]piperazine]
> 90 | Cc1cc(C(=O)N2CCN(CC(=O)N3CCN(C4CCC4)CC3)CC2)ccc1Cl [Compound 348, 1-(4-chloro-3-methylbenzoyl)-4-[2-(4-cyclobutylpiperazin-1-yl)-2-oxoethyl]piperazine]
> 90 | O=C(CN1CCN(C(=O)c2ccc(Cl)cc2)CC1)N1CCN(C2CCC2)CC1 [Compound 354, 1-(4-chlorobenzoyl)-4-[2-(4-cyclobutylpiperazin-1-yl)-2-oxoethyl]piperazine]
